Experimental data taken from PubChem BioAssay AID1745844 (Carcinogenic Potency Database (CPDB), 2022).
Active and inactive are the calls of the source. The rule behind the calls is not given here.

System: rodent lifetime carcinogenesis bioassay, tumor incidence TD50
Experiment: chronic cancer bioassays in animals – CPDB, compiled studies (AID 1745844)

**Q.** Which TD50 (hamster, strain Syrian Golden, females, in feed, site: bile duct, lesion: cholangioma, dosed 26 weeks, study length 71 weeks) does the source give for `O=[N+]([O-])c1ccc2c3c(cccc13)CC2` here?
**A.** Its TD50 is 354 mg/kg/day.

**Q.** And the TD50 (mouse, strain B6C3F1, females, in feed, site: any site (literature study), lesion: several types, types named in the paper, dosed 78 weeks, study length 96 weeks)?
**A.** Its TD50 is 90.4 mg/kg/day.

**Q.** What about the TD50 (mouse, strain B6C3F1, females, in feed, site: liver + ovary, lesion: hepatocellular carcinoma + granulosa-cell tumor + luteoma + tubular adenoma, dosed 78 weeks, study length 96 weeks) of the same compound?
**A.** The TD50 was 45.3 mg/kg/day.

**Q.** And the TD50 (mouse, strain B6C3F1, females, in feed, site: liver, lesion: hepatocellular adenoma + hepatocellular carcinoma + neoplastic nodule, dosed 78 weeks, study length 96 weeks)?
**A.** Its TD50 is 45.8 mg/kg/day.

**Q.** What about the TD50 (mouse, strain B6C3F1, females, in feed, site: liver, lesion: hepatocellular carcinoma, dosed 78 weeks, study length 96 weeks) of the same compound?
**A.** Its TD50 is 45.8 mg/kg/day.

**Q.** What about the TD50 (mouse, strain B6C3F1, females, in feed, site: lung, lesion: alveolar/bronchiolar adenoma + alveolar/bronchiolar carcinoma, dosed 78 weeks, study length 96 weeks) of the same compound?
**A.** The TD50 was 1320 mg/kg/day.

**Q.** And the TD50 (mouse, strain B6C3F1, females, in feed, site: ovary, lesion: granulosa-cell tumor + luteoma + tubular adenoma, dosed 78 weeks, study length 96 weeks)?
**A.** The TD50 was 217 mg/kg/day.

**Q.** What about the TD50 (mouse, strain B6C3F1, females, in feed, site: ovary, lesion: tubular adenoma, dosed 78 weeks, study length 96 weeks) of the same compound?
**A.** Its TD50 is 395 mg/kg/day.

**Q.** What about the carcinogen call (mouse, strain B6C3F1, males, in feed, site: any site (literature study), lesion: several types, types named in the paper, dosed 78 weeks, study length 95 weeks) of the same compound?
**A.** Its carcinogen call is “negative (inactive)”.

**Q.** And the TD50 (rat, strain Fischer 344, females, in feed, site: any site (literature study), lesion: several types, types named in the paper, dosed 78 weeks, study length 101 weeks)?
**A.** Its TD50 is 6.44 mg/kg/day.

**Q.** What about the TD50 (rat, strain Fischer 344, females, in feed, site: clitoral gland + ear canal + lung + mammary gland, lesion: carcinoma, NOS + carcinosarcoma + ceruminous carcinoma + squamous-cell carcinoma + alveolar/bronchiolar adenoma + alveolar/bronchi, dosed 78 weeks, study length 101 weeks) of the same compound?
**A.** The TD50 was 5.98 mg/kg/day.

**Q.** What about the TD50 (rat, strain Fischer 344, females, in feed, site: clitoral gland, lesion: carcinoma, NOS, dosed 78 weeks, study length 101 weeks) of the same compound?
**A.** The TD50 was 52.2 mg/kg/day.

**Q.** What about the TD50 (rat, strain Fischer 344, females, in feed, site: ear canal, lesion: carcinosarcoma + ceruminous carcinoma + squamous-cell carcinoma, dosed 78 weeks, study length 101 weeks) of the same compound?
**A.** Its TD50 is 14.9 mg/kg/day.

**Q.** What about the TD50 (rat, strain Fischer 344, females, in feed, site: ear canal, lesion: ceruminous carcinoma, dosed 78 weeks, study length 101 weeks) of the same compound?
**A.** Its TD50 is 17.4 mg/kg/day.

**Q.** And the TD50 (rat, strain Fischer 344, females, in feed, site: ear canal, lesion: squamous-cell carcinoma, dosed 78 weeks, study length 101 weeks)?
**A.** Its TD50 is 90.5 mg/kg/day.

**Q.** And the TD50 (rat, strain Fischer 344, females, in feed, site: lung, lesion: alveolar/bronchiolar adenoma + alveolar/bronchiolar carcinoma, dosed 78 weeks, study length 101 weeks)?
**A.** Its TD50 is 9.63 mg/kg/day.

**Q.** What about the TD50 (rat, strain Fischer 344, females, in feed, site: mammary gland, lesion: adenocarcinoma, NOS + papillary cystadenocarcinoma, NOS, dosed 78 weeks, study length 101 weeks) of the same compound?
**A.** The TD50 was 77.9 mg/kg/day.

**Q.** And the TD50 (rat, strain Fischer 344, females, in feed, site: mammary gland, lesion: adenocarcinoma, NOS, dosed 78 weeks, study length 101 weeks)?
**A.** The TD50 was 81.7 mg/kg/day.

**Q.** And the TD50 (rat, strain Fischer 344, males, in feed, site: any site (literature study), lesion: several types, types named in the paper, dosed 74 weeks, study length 101 weeks)?
**A.** The TD50 was 5.58 mg/kg/day.

**Q.** And the TD50 (rat, strain Fischer 344, males, in feed, site: ear canal + lung, lesion: ceruminous carcinoma + squamous-cell carcinoma + alveolar/bronchiolar adenoma + alveolar/bronchiolar carcinoma, dosed 74 weeks, study length 101 weeks)?
**A.** Its TD50 is 6.45 mg/kg/day.

**Q.** And the TD50 (rat, strain Fischer 344, males, in feed, site: ear canal, lesion: ceruminous carcinoma + squamous-cell carcinoma, dosed 74 weeks, study length 101 weeks)?
**A.** Its TD50 is 7.88 mg/kg/day.

**Q.** And the TD50 (rat, strain Fischer 344, males, in feed, site: ear canal, lesion: ceruminous carcinoma, dosed 74 weeks, study length 101 weeks)?
**A.** Its TD50 is 8.92 mg/kg/day.

**Q.** And the TD50 (rat, strain Fischer 344, males, in feed, site: ear canal, lesion: squamous-cell carcinoma, dosed 74 weeks, study length 101 weeks)?
**A.** The TD50 was 68.2 mg/kg/day.

**Q.** And the TD50 (rat, strain Fischer 344, males, in feed, site: kidney, lesion: tubular-cell adenoma + tubular-cell adenocarcinoma, dosed 74 weeks, study length 101 weeks)?
**A.** Its TD50 is 42.9 mg/kg/day.

**Q.** What about the TD50 (rat, strain Fischer 344, males, in feed, site: liver, lesion: hepatocellular adenoma + hepatocellular carcinoma + neoplastic nodule, dosed 74 weeks, study length 101 weeks) of the same compound?
**A.** Its TD50 is 71.4 mg/kg/day.

**Q.** What about the TD50 (rat, strain Fischer 344, males, in feed, site: lung, lesion: alveolar/bronchiolar adenoma + alveolar/bronchiolar carcinoma, dosed 74 weeks, study length 101 weeks) of the same compound?
**A.** Its TD50 is 29.9 mg/kg/day.

**Q.** And the TD50 (rat, strain Fischer 344, males, in feed, site: lung, lesion: alveolar/bronchiolar carcinoma, dosed 74 weeks, study length 101 weeks)?
**A.** The TD50 was 35.1 mg/kg/day.

**Q.** What about the TD50 (rat, strain Fischer 344, males, in feed, site: thyroid gland, lesion: follicular-cell adenoma + papillary adenoma, dosed 74 weeks, study length 101 weeks) of the same compound?
**A.** The TD50 was 58.5 mg/kg/day.

**Q.** And the TD50 (rat, strain Fischer 344, males, in feed, site: thyroid gland, lesion: follicular-cell carcinoma + papillary adenocarcinoma, dosed 74 weeks, study length 101 weeks)?
**A.** The TD50 was 37.7 mg/kg/day.

**Q.** Which carcinogen call (mouse, strain B6AKF1, females, oral dosing, site: any site (literature study), lesion: several types, types named in the paper, dosed 76 weeks, study length 76 weeks) does the source give for `CC=CC(=O)Oc1c(C(C)CCCCCC)cc([N+](=O)[O-])cc1[N+](=O)[O-]` (stereo unspecified) here?
**A.** The carcinogen call was “negative (inactive)”.

**Q.** What about the carcinogen call (mouse, strain B6AKF1, females, oral dosing, site: liver, lesion: hepatoma, dosed 76 weeks, study length 76 weeks) of the same compound?
**A.** The carcinogen call was “negative (inactive)”.

**Q.** And the carcinogen call (mouse, strain B6AKF1, females, oral dosing, site: lung, lesion: adenoma, dosed 76 weeks, study length 76 weeks)?
**A.** The carcinogen call was “negative (inactive)”.

**Q.** And the TD50 (mouse, strain B6AKF1, males, oral dosing, site: any site (literature study), lesion: several types, types named in the paper, dosed 76 weeks, study length 76 weeks)?
**A.** Its TD50 is 11.9 mg/kg/day (inactive).

**Q.** What about the TD50 (mouse, strain B6AKF1, males, oral dosing, site: liver, lesion: hepatoma, dosed 76 weeks, study length 76 weeks) of the same compound?
**A.** Its TD50 is 2.07 mg/kg/day (inactive).

**Q.** What about the TD50 (mouse, strain B6AKF1, males, oral dosing, site: lung, lesion: adenoma, dosed 76 weeks, study length 76 weeks) of the same compound?
**A.** The TD50 was 19.1 mg/kg/day (inactive).

**Q.** And the TD50 (mouse, strain B6C3F1, females, oral dosing, site: any site (literature study), lesion: several types, types named in the paper, dosed 76 weeks, study length 76 weeks)?
**A.** The TD50 was 1.21 mg/kg/day (inactive).

**Q.** And the TD50 (mouse, strain B6C3F1, females, oral dosing, site: liver, lesion: hepatoma, dosed 76 weeks, study length 76 weeks)?
**A.** Its TD50 is 2.5 mg/kg/day (inactive).

**Q.** And the carcinogen call (mouse, strain B6C3F1, females, oral dosing, site: lung, lesion: several types, types named in the paper, dosed 76 weeks, study length 76 weeks)?
**A.** The carcinogen call was “negative (inactive)”.

**Q.** And the TD50 (mouse, strain B6C3F1, males, oral dosing, site: any site (literature study), lesion: several types, types named in the paper, dosed 76 weeks, study length 76 weeks)?
**A.** The TD50 was 0.405 mg/kg/day (inactive).

**Q.** What about the TD50 (mouse, strain B6C3F1, males, oral dosing, site: liver, lesion: hepatoma, dosed 76 weeks, study length 76 weeks) of the same compound?
**A.** Its TD50 is 2.32 mg/kg/day (inactive).

**Q.** And the carcinogen call (mouse, strain B6C3F1, males, oral dosing, site: lung, lesion: several types, types named in the paper, dosed 76 weeks, study length 76 weeks)?
**A.** Its carcinogen call is “negative (inactive)”.
